Data set [1] is described as follows: Solubility of Compound I in solvents at neutral/acidic pH. It counts as physicochemical.
For data set [2], the target named is T1, LPA1 receptor (Mus musculus, UniProt P61793).
T1 construct: from tissue; host or cells: living mouse (skin), endogenous receptor
To be noted: mouse model of skin fibrosis; cited from earlier work.

Data set [3] concerns the target T2, LPA1 receptor (Homo sapiens, UniProt Q92633).
T2 construct: host or cells: patients (endogenous receptor), clinical study cited from Allanore et al. 2018
The following applies: patients with dcSSc; cited from earlier work.

Data set [4] is described as follows: Form conversion when slurried in solvent, determined by FTIR. The format is physicochemical. The following applies: slurried in MEK or 1-pentanol at 60° C. or 70° C.
Data set [5] is described as follows: Physical stability of solid state forms at 80° C./75% RH, examined by FTIR. The format is physicochemical. The following applies: 1 week, open glass vials. Here is the method:
The physical stability of Forms 1, 2, and 3 was investigated at 80° C./75% RH in order to determine if interconversion was observed. The samples were examined by FTIR after stressing 1 week in open glass vials.

Data set [6] can be described thus: Solubility of the polymorphs at pH 7.4 in phosphate buffer. The format is physicochemical. To be noted: pH 7.4 phosphate buffer, 25° C. Here is the method:
The solubility of the different polymorphs was determined at pH 7.4 in phosphate buffer at 25° C. Samples were analyzed as a function of time for each form to determine the equilibrium values. The residual solids from each sample were analyzed to verify that the form was unchanged during the experiment. The concentration (mg/mL) versus time data is listed below for each form: […]

The text below walks through data of patent US12391640B2, “Process of making a crystalline EDG-2 receptor antagonist” (HORIZON THERAPEUTICS IRELAND DAC, priority 2022, dated 2025).

The structures appear in SMILES notation.

T2 sequence (Q92633 whole entry): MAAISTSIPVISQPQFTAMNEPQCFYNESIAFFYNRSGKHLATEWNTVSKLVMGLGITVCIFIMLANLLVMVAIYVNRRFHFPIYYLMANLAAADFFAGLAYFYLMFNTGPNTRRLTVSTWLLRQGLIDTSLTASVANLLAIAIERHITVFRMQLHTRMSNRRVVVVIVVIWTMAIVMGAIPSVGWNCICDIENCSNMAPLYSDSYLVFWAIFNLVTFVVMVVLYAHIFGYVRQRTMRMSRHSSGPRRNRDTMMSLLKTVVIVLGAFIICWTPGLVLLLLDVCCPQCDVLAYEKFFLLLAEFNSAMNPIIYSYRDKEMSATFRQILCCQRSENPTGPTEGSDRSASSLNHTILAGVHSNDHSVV
T1 sequence (P61793 whole entry): as the sequence (Q92633 whole entry) above, with I4A, I8S, P22Q, H40Y, I61V, E193D, N194H, I269V, S331N, T335N counted along it

Consider `COc1ccc(C(=O)NC2(C(=O)O)Cc3ccccc3C2)cc1OCCc1cccc(C)c1` [Compound I, 2-(4-methoxy-3-(3-methylphenethoxy)benzamido)-2,3-dihydro-1H-indene-2-carboxylic acid], for which the “solubility in most solvents” value in data set [1] is recorded as “highly insoluble”. On LPA1 receptor [2], the collagen content entry is on record as “reduced collagen content”, the dermal thickening result is reported as “reversed dermal thickening” and the myofibroblast differentiation result was “significantly inhibited myofibroblast differentiation”. At LPA1 receptor [3], the outcome measures is “improved outcome measures”, the target engagement result is “demonstrated target engagement” and the tolerability entry is recorded as “well tolerated”.

Consider `COc1ccc(C(=O)NC2(C(=O)O)Cc3ccccc3C2)cc1OCCc1cccc(C)c1` [Form 1, 2-(4-methoxy-3-(3-methylphenethoxy)benzamido)-2,3-dihydro-1H-indene-2-carboxylic acid], for which the “form conversion in slurry” value in data set [4] was “converts to crystalline Form 2”. The “changes in FTIR spectrum after stressing (physical stability)” value in data set [5] is given as “unchanged FTIR”.

As for `COc1ccc(C(=O)NC2(C(=O)O)Cc3ccccc3C2)cc1OCCc1cccc(C)c1` [Form 2, 2-(4-methoxy-3-(3-methylphenethoxy)benzamido)-2,3-dihydro-1H-indene-2-carboxylic acid], in data set [6] (24 hour), the “24 hour solubility result greater than Form 1” value is reported as “more than 30%”.

As to `COc1ccc(C(=O)NC2(C(=O)O)Cc3ccccc3C2)cc1OCCc1cccc(C)c1` [Form 3, 2-(4-methoxy-3-(3-methylphenethoxy)benzamido)-2,3-dihydro-1H-indene-2-carboxylic acid], the “equilibrium solubility at 24 hours relative to Form 1” value in data set [6] is on record as “more than double”.

As for `COc1ccc(C(=O)NC2(C(=O)O)Cc3ccccc3C2)cc1OCCc1cccc(C)c1` [Form 4, 2-(4-methoxy-3-(3-methylphenethoxy)benzamido)-2,3-dihydro-1H-indene-2-carboxylic acid], the “equilibrium solubility at 24 hours relative to Form 1” value in data set [6] is reported as “more than double”.
